Values quoted from earlier work as cited in US20110236473A1, “STABLE ALISKIREN FORMULATIONS” (Sanovel Ilac Sanayi Ve Ticaret Anonim Sirketi, priority 2010, published 2011).
Like-named read-outs stand apart in the source and are kept apart here.

Measured: solubility

COCCCOc1cc(C[C@@H](C[C@H](N)[C@@H](O)C[C@@H](C(=O)NCC(C)(C)C(N)=O)C(C)C)C(C)C)ccc1OC [Aliskiren hemifumarate, (2S,4S,5S,7S)-5-amino-N-(2-carbamoyl-2-methylpropyl)-4-hydroxy-2-isopropyl-7-[4-methoxy-3-(3-methoxypropoxy)benzyl]-8-methylnonamide]
freely soluble: in n-octanol | in phosphate buffer | in water
